Measurements from patent EP0627009B1, “MACROCYCLIC LACTONES AND A PRODUCTIVE STRAIN THEREOF” (PFIZER INC., priority 1992, dated 1993).
Converted amounts (≈) assume the structure as drawn.

Key:
Candida albicans = experiment: anti-Candida albicans activity, agar plate dilution method with paper disk, inhibition zone; format: cell-based; settings: Concentration 40 mg/disk; paper disk 8 mm; agar medium for neomycin assay
From the text: The paper disk (8 mm, Advantic) and agar medium for neomycin assay (Difco) were used in the tests. As the novel macrocyclic lactones inhibit the growth of Candida albicans, they have an antifungal activity.

[1] = test system: human mixed lymphocyte reaction (MLR); experiment: human mixed lymphocyte reaction (MLR) activity; format: cell-based; settings: read-out: MLR activity(IC50, mg/ml)
Protocol: The measurement of the human MLR activity of the macrocyclic lactones of this invention carried out by standard procedures which are described in the literature (D. P. Dubey et al., in Manual of Clinical Laboratory Immunology, 3rd Ed., pp847-858, 1986). The cytotoxicities of the macrocyclic lactones were measured by the standard procedure (T. Mosmann, J., J. Immunol. Methods, 65, 55-63, 1983). The concentration of their cytotoxicities is several ten times higher than that of their MLR activities.

Compound: CO[C@H]1C[C@@H]2CC[C@@H](C)[C@@](O)(O2)C(=O)C(=O)N2CCCC[C@H]2C(=O)O[C@H]([C@H](C)C[C@@H]2CC[C@@H](O)[C@H](OC)C2)CC(=O)[C@H](C)/C=C(\C)[C@@H](O)[C@@H](OC)C(=O)[C@H](C)C[C@H](C)/C=C/C=C/C=C/1C [Rapamycin, rapamycin]
- The diameter of inhibition zone (mm) (Candida albicans): 25 mm
- IC50 [1]: 0.01 µg/mL (≈ 0.0109 µM)
